Measurements as given in patent US9718790B2, “Triazine derivative and pharmaceutical composition having an analgesic activity comprising the same” (SHIONOGI & CO., LTD., priority 2010, dated 2017).

Target: human P2X3 receptor (Homo sapiens (Human), UniProt P56373)
Assay: Evaluation of human P2X3 receptor inhibitory activity (Fluo-3 calcium fluorescence, FDSS 3000, ATP stimulation);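 note: stimulus was 50 nM ATP with fluorescence followed for 3 min, and the response per well was peak post-ATP fluorescence divided by the reading at measurement start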
Format: cell-based
Details: C6BU-1 cells stably expressing human P2X3 receptor

Chain of human P2X3 receptor (P56373 whole entry): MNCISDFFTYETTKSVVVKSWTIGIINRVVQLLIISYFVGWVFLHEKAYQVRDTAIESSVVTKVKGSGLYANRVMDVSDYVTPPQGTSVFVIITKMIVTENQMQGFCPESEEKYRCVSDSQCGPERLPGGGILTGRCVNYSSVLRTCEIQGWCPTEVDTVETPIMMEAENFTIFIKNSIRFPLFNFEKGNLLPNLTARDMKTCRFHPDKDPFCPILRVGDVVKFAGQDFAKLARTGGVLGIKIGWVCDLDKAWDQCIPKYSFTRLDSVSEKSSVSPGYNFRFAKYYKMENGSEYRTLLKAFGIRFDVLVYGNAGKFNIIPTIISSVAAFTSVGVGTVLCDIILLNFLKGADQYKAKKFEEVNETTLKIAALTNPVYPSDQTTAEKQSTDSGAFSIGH

| Compound | IC50 [nM] |
| --- | --- |
| CC(C)COc1ccc(/N=c2\[nH]c(=O)n([C@@H](C)[C@@H](C)C(=O)O)c(=O)n2Cc2ccc(Cl)cc2)cc1 [Compound I-1386] | 28 |
| Cc1ccc(Cn2c(=O)n([C@@H](C)[C@@H](C)C(=O)O)c(=O)[nH]/c2=N\c2ccc(OCC(C)C)cc2)cc1 [Compound I-1387] | 44 |
| Cc1ccc(Oc2ccc(/N=c3\[nH]c(=O)n([C@@H](C)[C@@H](C)C(=O)O)c(=O)n3Cc3ccc(Cl)cc3)cc2)cn1 [Compound I-1388] | 9 |
| Cc1ccc(Oc2ccc(/N=c3\[nH]c(=O)n([C@H](C)[C@H](C)C(=O)O)c(=O)n3Cc3ccc(Cl)cc3)cc2)cn1 [Compound I-1389] | 12 |
| C[C@@H](C(=O)O)[C@H](C)n1c(=O)[nH]/c(=N\c2ccc(Oc3cccnc3)cc2)n(Cc2ccc(Cl)cc2)c1=O [Compound I-1390] | 15 |
| C[C@@H](C(=O)O)[C@H](C)n1c(=O)[nH]/c(=N\c2ccc(OC3CCC3)cc2)n(Cc2ccc(Cl)cc2)c1=O [Compound I-1391] | 16 |
| Cc1ccc(Cn2c(=O)n([C@@H](C)[C@@H](C)C(=O)O)c(=O)[nH]/c2=N\c2ccc(OC3CCC3)cc2)cc1 [Compound I-1392] | 18 |
| C[C@@H](C(=O)O)[C@H](C)n1c(=O)[nH]/c(=N\c2ccc(N3CCCCC3)cc2)n(Cc2ccc(Cl)cc2)c1=O [Compound I-1393] | 35 |
| Cc1ccc(Cn2c(=O)n([C@@H](C)[C@@H](C)C(=O)O)c(=O)[nH]/c2=N\c2ccc(N3CCCCC3)cc2)cc1 [Compound I-1394] | 44 |
| Cc1ccc(Cn2c(=O)n(CCCC(=O)O)c(=O)[nH]/c2=N\c2ccc(Oc3ccc(C)nc3)cc2)cc1 [Compound I-1395] | 23 |
| COC(=O)CCCn1c(=O)[nH]/c(=N\c2ccc(Oc3ccnc(C)c3)cc2)n(Cc2ccc(Cl)cc2)c1=O [Compound I-1396] | 4 |
| CCOC(=O)CCCn1c(=O)[nH]/c(=N\c2ccc(Oc3ccnc(C)c3)cc2)n(Cc2ccc(C)cc2)c1=O [Compound I-1397] | 3 |
| COC(=O)[C@@H](C)Cn1c(=O)[nH]/c(=N\c2cnc(OC3CCC3)c(Cl)c2)n(Cc2ccc(C)cc2)c1=O [Compound I-1398] | 25 |
| COC(=O)[C@@H](C)Cn1c(=O)[nH]/c(=N\c2cnc(OC3CCC3)c(Cl)c2)n(Cc2ccc(Cl)cc2)c1=O [Compound I-1399] | 50 |
| CCOC(=O)CCn1c(=O)[nH]/c(=N\c2ccc(OC3CCC3)c(C)c2)n(Cc2ccc(C)cc2)c1=O [Compound I-1400] | 13 |
| CCOC(=O)CCn1c(=O)[nH]/c(=N\c2ccc(OC3CCC3)c(C)c2)n(Cc2ccc(Cl)cc2)c1=O [Compound I-1401] | 22 |
| COC(=O)[C@H](C)[C@H](C)n1c(=O)[nH]/c(=N\c2ccc(OC3CCC3)c(C)c2)n(Cc2ccc(C)cc2)c1=O [Compound I-1402] | 33 |
| COC(=O)[C@H](C)[C@H](C)n1c(=O)[nH]/c(=N\c2ccc(OC3CCC3)c(C)c2)n(Cc2ccc(Cl)cc2)c1=O [Compound I-1403] | 50 |
| Cc1cc(Oc2ccc(/N=c3\[nH]c(=O)n(CCCC(=O)O)c(=O)n3Cc3ccc(Cl)cc3)cc2)ccn1 [Compound I-1404] | 24 |
| Cc1ccc(Cn2c(=O)n(CCCC(=O)O)c(=O)[nH]/c2=N\c2ccc(Oc3ccnc(C)c3)cc2)cc1 [Compound I-1405] | 26 |
| Cc1ccc(Cn2c(=O)n(CCC(=O)O)c(=O)[nH]/c2=N\c2ccc(OC3CCC3)c(C)c2)cc1 [Compound I-1406] | 64 |

| Compound | IC50 [nM] |
| --- | --- |
| Cc1cc(/N=c2\[nH]c(=O)n(CCC(=O)O)c(=O)n2Cc2ccc(Cl)cc2)ccc1OC1CCC1 [Compound I-1407] | 36 |
| Cc1ccc(Cn2c(=O)n([C@@H](C)[C@@H](C)C(=O)O)c(=O)[nH]/c2=N\c2ccc(OC3CCC3)c(C)c2)cc1 [Compound I-1408] | 16 |
| Cc1cc(/N=c2\[nH]c(=O)n([C@@H](C)[C@@H](C)C(=O)O)c(=O)n2Cc2ccc(Cl)cc2)ccc1OC1CCC1 [Compound I-1409] | 17 |
| Cc1ccc(Cn2c(=O)n(C[C@H](C)C(=O)O)c(=O)[nH]/c2=N\c2cnc(OC3CCC3)c(Cl)c2)cc1 [Compound I-1410] | 56 |
| C[C@@H](Cn1c(=O)[nH]/c(=N\c2cnc(OC3CCC3)c(Cl)c2)n(Cc2ccc(Cl)cc2)c1=O)C(=O)O [Compound I-1411] | 58 |
| O=C(O)CCn1c(=O)[nH]/c(=N\c2ccc(Oc3cncc(F)c3)cc2)n(Cc2ccc(Cl)cc2)c1=O [Compound I-1412] | 11 |
| Cc1ccc(Oc2ccc(/N=c3\[nH]c(=O)n(CCC(=O)O)c(=O)n3Cc3ccc(Cl)cc3)cc2)c(C)n1 [Compound I-1413] | 72 |
| CC(C)NC(=O)c1ccc(/N=c2\[nH]c(=O)n(C[C@H](C)C(=O)O)c(=O)n2Cc2ccc(Cl)cc2)cc1Cl [Compound I-1414] | 986 |
| COC(=O)[C@@H](C)Cn1c(=O)[nH]/c(=N\c2ccc(NC(C)=O)cc2)n(Cc2ccc(C)cc2)c1=O [Compound I-1415] | 532 |
| COC(=O)[C@@H](C)Cn1c(=O)[nH]/c(=N\c2ccc(NS(C)(=O)=O)cc2)n(Cc2ccc(C)cc2)c1=O [Compound I-1416] | 141 |
| Cc1ccc(Cn2c(=O)n(C[C@H](C)C(=O)O)c(=O)[nH]/c2=N\c2ccc(NS(C)(=O)=O)cc2)cc1 [Compound I-1417] | 207 |
| COC(=O)[C@@H](C)Cn1c(=O)[nH]/c(=N\c2ccc(NC(=O)C(C)C)c(Cl)c2)n(Cc2ccc(C)cc2)c1=O [Compound I-1419] | 304 |
| Cc1ccc(Cn2c(=O)n(C[C@H](C)C(=O)O)c(=O)[nH]/c2=N\c2ccc(NC(=O)C(C)C)c(Cl)c2)cc1 [Compound I-1420] | 607 |
| CCOC(=O)CCn1c(=O)[nH]/c(=N\c2ccc(OC(C)C)c(COC)c2)n(Cc2ccc(C)cc2)c1=O [Compound I-1421] | 883 |
| COCc1cc(/N=c2\[nH]c(=O)n(CC(C)(C)C(=O)OC)c(=O)n2Cc2ccc(Cl)cc2)ccc1OC(C)C [Compound I-1422] | 529 |
| COC(=O)C(C)(C)Cn1c(=O)[nH]/c(=N\c2ccc(OC(C)C)c(CO)c2)n(Cc2ccc(Cl)cc2)c1=O [Compound I-1423] | 41 |
| CCOC(=O)CCn1c(=O)[nH]/c(=N\c2ccc(OC(C)C)c(CO)c2)n(Cc2ccc(C)cc2)c1=O [Compound I-1424] | 35 |
| CCOC(=O)CCn1c(=O)[nH]/c(=N\c2ccc(OC(C)C)c(COC(C)=O)c2)n(Cc2ccc(C)cc2)c1=O [Compound I-1425] | 50 |
| CCOC(=O)CCn1c(=O)[nH]/c(=N\c2ccc(CC(C)C)c(Cl)c2)n(Cc2ccc(C)cc2)c1=O [Compound I-1426] | 50 |
| Cc1ccc(Cn2c(=O)n(CCC(=O)O)c(=O)[nH]/c2=N\c2ccc(CC(C)C)c(Cl)c2)cc1 [Compound I-1427] | 8 |
| COCc1cc(/N=c2\[nH]c(=O)n(CCC(=O)O)c(=O)n2Cc2ccc(C)cc2)ccc1OC(C)C [Compound I-1428] | 926 |

| Compound | IC50 [nM] |
| --- | --- |
| Cc1ccc(Cn2c(=O)n(CCC(=O)O)c(=O)[nH]/c2=N\c2ccc(OC(C)C)c(CO)c2)cc1 [Compound I-1429] | 232 |
| COCc1cc(/N=c2\[nH]c(=O)n(CC(C)(C)C(=O)O)c(=O)n2Cc2ccc(Cl)cc2)ccc1OC(C)C [Compound I-1430] | 709 |
| CC(C)Oc1ccc(/N=c2\[nH]c(=O)n(CC(C)(C)C(=O)O)c(=O)n2Cc2ccc(Cl)cc2)cc1CO [Compound I-1431] | 242 |
| COC(=O)[C@@H](C)Cn1c(=O)[nH]/c(=N\c2ccc(Oc3ccnc(O)c3)cc2)n(Cc2ccc(C)cc2)c1=O [Compound I-1432] | 2 |
| CCOC(=O)CCn1c(=O)[nH]/c(=N\c2ccc(Oc3ccnc(O)c3)cc2)n(Cc2ccc(Cl)cc2)c1=O [Compound I-1434] | 2 |
| COC(=O)[C@H](C)[C@H](C)n1c(=O)[nH]/c(=N\c2ccc(CC(C)C)c(Cl)c2)n(Cc2ccc(Cl)cc2)c1=O [Compound I-1435] | 61 |
| COC(=O)[C@H](C)[C@H](C)n1c(=O)[nH]/c(=N\c2ccc(CC(C)C)c(Cl)c2)n(Cc2ccc(C)cc2)c1=O [Compound I-1436] | 54 |
| COC(=O)[C@@H](C)[C@@H](C)n1c(=O)[nH]/c(=N\c2ccc(CC(C)C)c(Cl)c2)n(Cc2ccc(Cl)cc2)c1=O [Compound I-1438] | 63 |
| COC(=O)[C@@H](C)[C@@H](C)n1c(=O)[nH]/c(=N\c2ccc(CC(C)C)c(Cl)c2)n(Cc2ccc(C)cc2)c1=O [Compound I-1439] | 39 |
| Cc1ccc(Cn2c(=O)n(C[C@H](C)C(=O)O)c(=O)[nH]/c2=N\c2ccc(Oc3ccnc(O)c3)cc2)cc1 [Compound I-1440] | 6 |
| O=C(O)CCn1c(=O)[nH]/c(=N\c2ccc(Oc3ccnc(O)c3)cc2)n(Cc2ccc(Cl)cc2)c1=O [Compound I-1441] | 9 |
| CC(C)Cc1ccc(/N=c2\[nH]c(=O)n([C@@H](C)[C@@H](C)C(=O)O)c(=O)n2Cc2ccc(Cl)cc2)cc1Cl [Compound I-1442] | 8 |
| Cc1ccc(Cn2c(=O)n([C@@H](C)[C@@H](C)C(=O)O)c(=O)[nH]/c2=N\c2ccc(CC(C)C)c(Cl)c2)cc1 [Compound I-1443] | 6 |
| Cc1ccc(Cn2c(=O)n([C@H](C)[C@H](C)C(=O)O)c(=O)[nH]/c2=N\c2ccc(CC(C)C)c(Cl)c2)cc1 [Compound I-1444] | 4 |
| CC(C)Cc1ccc(/N=c2\[nH]c(=O)n([C@H](C)[C@H](C)C(=O)O)c(=O)n2Cc2ccc(Cl)cc2)cc1Cl [Compound I-1445] | 4 |
| COC(=O)C(C)(C)Cn1c(=O)[nH]/c(=N\c2ccc(CC(C)C)c(Cl)c2)n(Cc2ccc(C)cc2)c1=O [Compound I-1447] | 6 |
| CCOC(=O)C1(Cn2c(=O)[nH]/c(=N\c3ccc(CC(C)C)c(Cl)c3)n(Cc3ccc(C)cc3)c2=O)CC1 [Compound I-1448] | 12 |
| CCOC(=O)CCn1c(=O)[nH]/c(=N\c2ccc(OC(C)C)c(Cl)c2)n(CC2CCC3(CC2)CC3)c1=O [Compound I-1449] | 4 |
| CC(C)Oc1ccc(/N=c2\[nH]c(=O)n(CCC(=O)Nc3ccc(OC(C)C)c(Cl)c3)c(=O)n2CC2CCC3(CC2)CC3)cc1Cl [Compound I-1450] | 448 |
| Cc1ccc(Cn2c(=O)n(CC3(C(=O)O)CC3)c(=O)[nH]/c2=N\c2ccc(CC(C)C)c(Cl)c2)cc1 [Compound I-1451] | 5 |
